Measurements published in US20180312473A1, “PHENAZINE DERIVATIVES AS ANTIMICROBIAL AGENTS” (priority 2015, published 2018).
≈ marks a conversion by molar mass, not a printed value. Like-named read-outs stand apart in the source and are kept apart here.

Tests used:
[1] = test system: MRSA-2 planktonic cells and biofilms; assay: Calgary Biofilm Device (CBD) assay, MBC/MBEC; assay type: cell-based, Staphylococcus aureus
[2] = test system: Staphylococcus epidermidis (ATCC 35984), MRSE; assay: MIC assay (broth microdilution, CLSI); assay type: cell-based; settings: for MIC: Staphylococcus epidermidis
[3] = test system: MRSA-2 (methicillin-resistant Staphylococcus aureus clinical isolate); assay: MIC assay (broth microdilution, CLSI); assay type: cell-based; settings: read-out: MIC, MRSA-2
[4] = test system: MRSA BAA-44; assay: MIC assay (broth microdilution, CLSI); settings: Staphylococcus aureus, read-out: MIC, MRSA BAA-44
[5] = test system: human red blood cells; assay: Hemolysis assay with red blood cells
Experimental: The hemolysis activities of select compounds of the invention were determined. […] The washing was repeated three times with the buffer. In 96-well plate, test compounds were added to the buffer from DMSO stocks. […] The plate was then incubated for 1 hour at 37° C. After incubation, the plate was centrifuged for 5 minutes at 3,500 rpm. Then 80 μL of the supernatant was transferred to another 96-well plate, and the optical density (OD) was read at 405 nm. DMSO served as the negative control (0% hemolysis), while Triton X served as the positive control (100% hemolysis). The percent of hemolysis was calculated as (OD405 of the compound−OD405 of DMSO)/(OD405 of Triton X−OD405 of the buffer).
The washing was repeated three times with the buffer. In 96-well plate, test compounds were added to the buffer from DMSO stocks. […] The plate was then incubated for 1 hour at 37° C. After incubation, the plate was centrifuged for 5 minutes at 3,500 rpm. Then 80 μL of the supernatant was transferred to another 96-well plate and the optical density (OD) was read at 405 nm. DMSO served as our negative control (0% hemolysis) while Triton X served as our positive control (100% hemolysis). The percent of hemolysis was calculated as (OD405 of the test compound−OD405 DMSO)/(OD405 Triton X−OD405 buffer) from three independent experiments.

[6] = test system: Enterococcus faecium (ATCC 700221), VRE; assay: MIC assay (broth microdilution, CLSI); assay type: cell-based
[7] = test system: MRSA BAA-1707; assay: MIC assay (broth microdilution, CLSI); settings: Staphylococcus aureus, read-out: MIC, MRSA BAA-1707
[8] = test system: Staphylococcus epidermidis (ATCC 12228); assay: MIC assay (broth microdilution, CLSI); assay type: cell-based
[9] = test system: MRSA-1 (methicillin-resistant Staphylococcus aureus clinical isolate); assay: MIC assay (broth microdilution, CLSI); assay type: cell-based; settings: Table 2A; for MIC: Staphylococcus aureus, MRSA, read-out: MIC, MRSA-1
[10] = test system: MRSE (S. epidermidis ATCC 35984) planktonic cells and biofilms; assay: Calgary Biofilm Device (CBD) assay, MBC/MBEC; assay type: cell-based, Staphylococcus epidermidis; settings: Staphylococcus epidermidis; Table 8; read-out: MRSE 35984 MBC
[11] = in vitro; assay type: cell-based; settings: human
Experimental: (§1) The cytotoxicities of select compounds of the invention against HeLa cells were determined. HeLa cytotoxicity was assessed using the LDH release assay described by CYTOTOX96 (Promega G1780). HeLa cells were grown in Dulbecco's Modified Eagle Medium (DMEM; Gibco) supplemented with 10% Fetal Bovine Serum (FBS) at 37° C. with 5% CO2. […] Triton X-100 (at 2% v/v) was used as the positive control for maximum lactate dehydrogenate (LDH) activity in this assay (e.g., complete cell death), while “medium only” lanes served as negative control lanes (e.g., no cell death). DMSO was used as the vehicle control. […] Finally, Stop Solution (50 μL) was added to the incubating plates, and the absorbance was measured at 490 nm.
(§2) HeLa cytotoxicity was assessed using the LDH release assay described by CYTOTOX96 (Promega G1780). HeLa cells were grown in Dulbecco's Modified Eagle Medium (DMEM; Gibco) supplemented with 10% Fetal Bovine Serum (FBS) at 37° C. with 5% CO2. […] Triton X-100 (at 2% v/v) was used as the positive control for maximum lactate dehydrogenate (LDH) activity in this assay (e.g., complete cell death), while “medium only” lanes served as negative control lanes (e.g., no cell death). DMSO was used as our vehicle control. […] Finally, Stop Solution (50 μL) was added to the incubating plates and the absorbance was measured at 490 nm. Results are from three independent experiments (FIG. 19)

[12] = test system: HeLa cells; assay: in vitro; assay type: cell-based
Experimental: as §1, §2

[13] = test system: VRE (E. faecium ATCC 700221) planktonic cells and biofilms; assay: Calgary Biofilm Device (CBD) assay, MBC/MBEC; assay type: cell-based, Enterococcus faecium; settings: Enterococcus; Table 8; c lowest concentration tested; read-out: VRE 700221 MBC
[14] = Staphylococcus aureus, MRSA, Table 4, read-out: MBC, MRSA-2
[15] = Staphylococcus aureus, MRSA, Table 8, a/b 2-/4-fold range in independent experiments, read-out: MRSA-2 MBC
[16] = Table 2A, read-out: MIC, Staphylococcus epidermidis (ATCC 35984)
[17] = Table 7, read-out: MIC, MRSE 35984
[18] = Staphylococcus aureus, MRSA, Table 2A
[19] = Staphylococcus aureus, MRSA, Table 7, a midpoint of 2-fold range, b lowest concentration tested
[20] = Enterococcus faecium, Table 2A, read-out: MIC, Enterococcus faecium (ATCC 700221)
[21] = Table 7, b lowest concentration tested, read-out: MIC, VRE 700221
[22] = Staphylococcus epidermidis, ATCC12228, Table 2A, read-out: MIC, Staphylococcus epidermidis (ATCC 12228)
[23] = Staphylococcus epidermidis, ATCC12228, Table 7, b lowest concentration tested, read-out: MIC, S. epidermidis 12228

Structure (SMILES): Oc1c(Cl)cc(Cl)c2nc3ccccc3nc12 [Compound 3, 2,4-Dichloro-1-hydroxyphenazine]
- MBC [1, 14]: 62.5 µM (≈ 16.6 µg/mL)
- MBC [1, 15]: 62.5 µM (≈ 16.6 µg/mL)
- MBEC:MBC ratio, MRSA-2 ([1]; Table 4): >16.0
- MIC [2, 16]: 3.13 µM (≈ 0.83 µg/mL)
- MIC [2, 17]: 3.13 µM (≈ 0.83 µg/mL)
- MIC [3, 18]: 3.13 µM (≈ 0.83 µg/mL)
- MIC [3, 19]: 3.13 µM (≈ 0.83 µg/mL)
- melting point: 205 to 207 °C
- MIC [4]: 3.13 µM (≈ 0.83 µg/mL)
- % Hemolysis (200 μM) ([5]; human, 1 h, 200 μM, pH 7.2): ≤1%
- % Hemolysis at 200 μM ([5]; human, 1 h, 200 μM, pH 7.2): ≤1%
- MIC [6, 20]: 12.5 µM (≈ 3.31 µg/mL)
- MIC [6, 21]: 12.5 µM (≈ 3.31 µg/mL)
- MIC [7]: 3.13 µM (≈ 0.83 µg/mL)
- MIC [8, 22]: 3.13 µM (≈ 0.83 µg/mL)
- MIC [8, 23]: 3.13 µM (≈ 0.83 µg/mL)
- MIC [9]: 3.13 µM (≈ 0.83 µg/mL)

Structure (SMILES): Oc1c(I)cc(I)c2nc3ccccc3nc12 [Compound 4, 2,4,-Diiodo-1-hydroxyphenazine]
- MBC [1, 15]: 31.3 µM (≈ 14 µg/mL)
- MBEC, MRSA-2 ([1]; Table 4): 93.8 µM
- MBEC:MBC ratio, MRSA-2 ([1]; Table 4): 3.0
- MBC ([1]; Table 4, read-out: MBC, MRSA-2): 31.3 µM (≈ 14 µg/mL)
- MBC [10]: 31.3 µM (≈ 14 µg/mL)
- MIC [2, 17]: 1.17 µM (≈ 0.524 µg/mL)
- MIC, Staphylococcus epidermidis (ATCC 35984) ([2]; Table 2A): 0.78 to 1.56 µM
- MIC [3, 19]: 3.13 µM (≈ 1.4 µg/mL)
- MIC ([3]; Table 2A): 3.13 µM (≈ 1.4 µg/mL)
- MIC [4]: 3.13 µM (≈ 1.4 µg/mL)
- IC50 at 24 h [11]: > 100 µM
- IC50 [12]: > 100 µM
- % Hemolysis (200 μM) [5]: ≤1%
- % Hemolysis at 200 μM ([5]; human, 1 h, 200 μM, pH 7.2): ≤1%
- MIC ([6]; Table 2A, read-out: MIC, Enterococcus faecium (ATCC 700221)): 6.25 µM (≈ 2.8 µg/mL)
- MIC [6, 21]: 6.25 µM (≈ 2.8 µg/mL)
- MIC [7]: 3.13 µM (≈ 1.4 µg/mL)
- MIC [8, 23]: 1.56 µM (≈ 0.699 µg/mL)
- MIC ([8]; Table 2A, read-out: MIC, Staphylococcus epidermidis (ATCC 12228)): 1.56 µM (≈ 0.699 µg/mL)
- MBC [13]: 23.5 µM (≈ 10.5 µg/mL)
- MIC, MRSA-1 [9]: 0.78 to 1.56 µM

Structure (SMILES): Oc1c(Cl)cc(Br)c2nc3ccccc3nc12 [Compound 5, 4-Bromo-2-chloro-1-hydroxyphenazine]
- MBC [1, 14]: 62.5 µM (≈ 19.3 µg/mL)
- MBC [1, 15]: 62.5 µM (≈ 19.3 µg/mL)
- MBC [10]: 31.3 µM (≈ 9.69 µg/mL)
- melting point: 229 to 231 °C
- MIC [4]: 3.13 µM (≈ 0.969 µg/mL)
- IC50 at 24 h [11]: > 100 µM
- IC50 ([12]; human, 24 h): > 100 µM
- % Hemolysis (200 μM) ([5]; human, 1 h, 200 μM, pH 7.2): ≤1%
- % Hemolysis at 200 μM ([5]; human, 1 h, 200 μM, pH 7.2): ≤1%
- MIC [6, 20]: 6.25 µM (≈ 1.93 µg/mL)
- MIC [6, 21]: 6.25 µM (≈ 1.93 µg/mL)
- MIC [8, 22]: 3.13 µM (≈ 0.969 µg/mL)
- MIC [8, 23]: 3.13 µM (≈ 0.969 µg/mL)
- MBC [13]: 11.7 µM (≈ 3.62 µg/mL)

Structure (SMILES): Oc1c(Cl)cc(I)c2nc3ccccc3nc12 [Compound 6, 2-Chloro-4-iodo-1-hydroxyphenazine]
- MBC [1, 14]: 15.6 µM (≈ 5.56 µg/mL)
- MBC [1, 15]: 15.6 µM (≈ 5.56 µg/mL)
- MBEC:MBC ratio, MRSA-2 ([1]; Table 4): 8.0
- MIC [2, 16]: 1.56 µM (≈ 0.556 µg/mL)
- MIC [2, 17]: 1.56 µM (≈ 0.556 µg/mL)
- MIC [3, 18]: 1.56 µM (≈ 0.556 µg/mL)
- MIC [3, 19]: 1.56 µM (≈ 0.556 µg/mL)
- melting point: 183 to 185 °C
- MIC [4]: 1.56 µM (≈ 0.556 µg/mL)
- IC50 at 24 h [11]: > 100 µM
- IC50 ([12]; human, 24 h): > 100 µM
- % Hemolysis (200 μM) ([5]; human, 1 h, 200 μM, pH 7.2): 5.1%
- MIC [6, 20]: 6.25 µM (≈ 2.23 µg/mL)
- MIC [6, 21]: 6.25 µM (≈ 2.23 µg/mL)
- MIC [7]: 1.56 µM (≈ 0.556 µg/mL)
- MIC [8, 22]: 1.56 µM (≈ 0.556 µg/mL)
- MIC [8, 23]: 1.56 µM (≈ 0.556 µg/mL)
- MIC [9]: 1.56 µM (≈ 0.556 µg/mL)
